Reference: ChEMBL document CHEMBL5512690, “Identification and Validation of PKR as a Direct Target for the Novel Sulfonamide-Substituted Tetrahydroquinoline Nonselective Inhibitor of the NLRP3 Inflammasome” (J Med Chem, 2024)

How the values were obtained:
[1] = Cytotoxicity against human differentiated THP-M cells derived PMA induced THP-1 cells measured after 72 hrs by MTT assay
[2] = molecular target: NACHT, LRR and PYD domains-containing protein 3 (Homo sapiens, UniProt Q96P20)
NACHT, LRR and PYD domains-containing protein 3, sequence (Q96P20 whole entry, the tested form may be a part): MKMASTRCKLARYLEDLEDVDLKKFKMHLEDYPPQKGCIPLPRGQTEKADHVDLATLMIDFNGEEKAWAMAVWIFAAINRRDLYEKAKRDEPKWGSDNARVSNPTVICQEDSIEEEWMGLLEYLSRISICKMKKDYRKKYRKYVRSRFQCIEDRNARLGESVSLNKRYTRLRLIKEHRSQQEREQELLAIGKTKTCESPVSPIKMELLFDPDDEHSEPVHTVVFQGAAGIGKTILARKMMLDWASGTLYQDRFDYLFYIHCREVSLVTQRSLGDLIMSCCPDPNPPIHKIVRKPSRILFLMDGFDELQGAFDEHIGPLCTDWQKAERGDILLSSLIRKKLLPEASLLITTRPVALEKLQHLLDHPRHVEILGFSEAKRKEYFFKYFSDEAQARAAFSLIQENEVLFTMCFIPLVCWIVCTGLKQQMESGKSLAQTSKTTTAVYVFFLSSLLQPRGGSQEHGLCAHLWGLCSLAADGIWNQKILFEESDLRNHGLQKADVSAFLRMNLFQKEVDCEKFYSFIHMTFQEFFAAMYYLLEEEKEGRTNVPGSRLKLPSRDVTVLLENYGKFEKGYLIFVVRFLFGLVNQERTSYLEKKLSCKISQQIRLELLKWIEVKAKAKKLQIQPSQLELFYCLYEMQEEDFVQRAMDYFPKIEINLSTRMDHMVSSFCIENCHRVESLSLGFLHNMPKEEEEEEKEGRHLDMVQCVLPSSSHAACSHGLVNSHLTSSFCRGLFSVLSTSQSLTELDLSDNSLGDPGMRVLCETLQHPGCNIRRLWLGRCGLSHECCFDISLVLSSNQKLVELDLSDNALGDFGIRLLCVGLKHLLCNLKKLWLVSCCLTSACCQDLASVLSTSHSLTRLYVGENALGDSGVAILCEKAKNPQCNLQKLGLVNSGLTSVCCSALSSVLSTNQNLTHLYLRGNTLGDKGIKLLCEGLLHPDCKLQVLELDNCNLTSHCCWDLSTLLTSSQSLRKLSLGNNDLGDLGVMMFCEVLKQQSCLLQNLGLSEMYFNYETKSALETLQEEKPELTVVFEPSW
Description: Inhibition of NLRP3 inflammasome activation in LPS primed human differentiated THP-M cells derived PMA induced THP-1 cells assessed as inhibition of IL-1 beta level preincubated with compound for 24 hrs followed by LPS stimulation for 3 hrs and further incubated with ATP for 1 hr by ELISA method

Row | SMILES | CC50 [1] | IC50 [2]
1 | O=C(O)c1ccc(/C=C2\SC(=S)N(Cc3cccc(C(F)(F)F)c3)C2=O)cc1 | > 100 µM | 5.33 µM
2 | CS(=O)(=O)N1CCCc2ccc(NS(=O)(=O)c3ccc(Br)cc3)cc21 | > 100 µM | 
3 | CS(=O)(=O)N1CCCc2ccc(NS(=O)(=O)c3cccs3)cc21 | > 100 µM | 
4 | CS(=O)(=O)N1CCCc2ccc(NS(=O)(=O)c3cccc4ccccc34)cc21 | > 100 µM | 
5 | CS(=O)(=O)N1CCCc2ccc(NS(=O)(=O)c3ccccn3)cc21 | > 100 µM | 
6 | CS(=O)(=O)N1CCCc2ccc(NS(=O)(=O)c3ccc(C#N)cc3)cc21 | > 100 µM | 
7 | CC(=O)c1ccc(S(=O)(=O)Nc2ccc3c(c2)N(S(C)(=O)=O)CCC3)cc1 | > 100 µM | 
8 | CS(=O)(=O)N1CCCc2ccc(NS(=O)(=O)c3ccc4ccccc4c3)cc21 | > 100 µM | 
9 | CS(=O)(=O)N1CCCc2ccc(NS(=O)(=O)c3ccc(F)cc3)cc21 | > 100 µM | 
10 | CS(=O)(=O)N1CCCc2ccc(NS(=O)(=O)c3ccccc3)cc21 | > 100 µM | 
11 | CS(=O)(=O)N1CCCc2ccc(NS(=O)(=O)c3cccc4cccnc34)cc21 | > 100 µM | 
12 | CS(=O)(=O)N1CCCc2ccc(NS(=O)(=O)c3ccccc3[N+](=O)[O-])cc21 | > 100 µM | 
13 | CS(=O)(=O)Nc1ccc2c(c1)N(S(C)(=O)=O)CCC2 | > 100 µM | 
14 | CS(=O)(=O)N1CCCc2ccc(NS(=O)(=O)c3ccc(C(F)(F)F)cc3)cc21 | > 100 µM | 
15 | COC(=O)c1ccsc1S(=O)(=O)Nc1ccc2c(c1)N(S(C)(=O)=O)CCC2 | > 100 µM | 
16 | CS(=O)(=O)N1CCCc2ccc(NS(=O)(=O)c3ccc(Cl)cc3)cc21 | > 100 µM | 
17 | CS(=O)(=O)N1CCCc2ccc(NS(=O)(=O)c3cccc(F)c3)cc21 | > 100 µM | 
18 | CS(=O)(=O)N1CCCc2ccc(NS(=O)(=O)c3ccccc3F)cc21 | > 100 µM | 
19 | CS(=O)(=O)N1CCCc2ccc(NS(=O)(=O)Cc3ccccc3)cc21 | > 100 µM | 
20 | CC(=O)Nc1ccc(S(=O)(=O)Nc2ccc3c(c2)N(S(C)(=O)=O)CCC3)cc1 | > 100 µM | 
21 | COc1ccc(S(=O)(=O)Nc2ccc3c(c2)N(S(C)(=O)=O)CCC3)cc1 | > 100 µM | 
22 | CCCS(=O)(=O)Nc1ccc2c(c1)N(S(C)(=O)=O)CCC2 | > 100 µM | 
23 | CC(C)(C)c1ccc(S(=O)(=O)Nc2ccc3c(c2)N(S(C)(=O)=O)CCC3)cc1 | > 100 µM | 
24 | CCS(=O)(=O)Nc1ccc2c(c1)N(S(C)(=O)=O)CCC2 | > 100 µM | 
25 | CS(=O)(=O)N1CCCc2ccc(NS(=O)(=O)c3ccc([N+](=O)[O-])cc3)cc21 | > 100 µM | 
26 | CCCCS(=O)(=O)Nc1ccc2c(c1)N(S(C)(=O)=O)CCC2 | > 100 µM | 
27 | COC(=O)c1ccc(S(=O)(=O)Nc2ccc3c(c2)N(S(C)(=O)=O)CCC3)cc1 | > 100 µM | 
28 | Cc1ccc(S(=O)(=O)Nc2ccc3c(c2)N(S(C)(=O)=O)CCC3)cc1 | > 100 µM | 
29 | CS(=O)(=O)N1CCCc2ccc(NS(=O)(=O)c3cc(C(F)(F)F)cc(C(F)(F)F)c3)cc21 | > 100 µM | 
